According to US20200197355A1, “METHODS, COMPOSITIONS AND CONTAINERS FOR REDUCING SOLID FORM QUERCETIN DEGRADATION AND 2-(3,4-DIHYDROXYBENZOYLOXY)-4,6-DIHYDROXYBENZOIC ACID TOXIC BYPRODUCTS THEREOF” (PUBLIC JOINT STOCK COMPANY "SCIENTIFICINDUSTRIALCENTRE …, priority 2018, published 2020):
Values after ≈ are worked out from the molar mass of the structure shown.

Assays:
[1] = Toxicity of DB-DBA, CellTiter 96 AQueous One Solution cell viability assay, 72 h; type: cell-based, human; details: human, MDA-MB231 breast cancer cells, 72 h
Protocol: (§1) Toxicity of DB-DBA (2-(3,4-dihydroxybenzoyloxy)-4,6-dihydroxybenzoic acid) was assessed in 96-well plates (Thermofisher, Walthman, Mass.) on 1×10^3 MDA-MB231 human breast cancer cells/well. DB-DBA was diluted to concentrations from 500 to 20 ug/ml. The plate was incubated at 37° C. for 72 h. Cell viability was measured in a CellTiter 96® AQueous One Solution Cell Proliferation Assay (Promega, Madison, Wis.), according to the manufacturer's protocol.

[2] = test system: MDA-MB231 human breast cancer cells; assay: as above; type: cell-based; details: Homo sapiens, MDA-MB-231; MDA-MB231, 72 h, 37° C.
Protocol: as §1

[3] = test system: human lymphoblastoid TK6 cells; details: cited from earlier work
[4] = test system: human lymphoblastoid cell line K562; details: cited from earlier work
[5] = test system: human lymphoblastoid TK6 cells; details: cited from earlier work; remark: listed apart in the source
[6] = test system: retinal pigmented epithelial cells (ARPE-19); details: cited from earlier work
[7] = humans, cited from earlier work

Compound: O=C(Oc1cc(O)cc(O)c1C(=O)O)c1ccc(O)c(O)c1 [DB-DBA, 2-(3,4-dihydroxybenzoyloxy)-4,6-dihydroxybenzoic acid]
- viability at 72 h, 20 microgram/ml ([1]; DB-DBA 20 microgram/ml): 95%
- viability at 72 h, 50 microgram/ml ([1]; DB-DBA 50 microgram/ml): 62%
- viability at 72 h, 100 microgram/ml ([1]; DB-DBA 100 microgram/ml): 41%
- viability at 72 h, 250 microgram/ml ([1]; DB-DBA 250 microgram/ml): 19%
- viability at 72 h, 500 microgram/ml ([1]; DB-DBA 500 microgram/ml): 10%
- IC50 [2]: 75 µg/mL (≈ 245 µM)

Compound: O=C(O)c1cc(O)c(O)c(OC(=O)c2cc(O)c(O)c(O)c2)c1 [DGA, Digallic acid]
- concentrations causing DNA fragmentation, caspase-3/8 activation and PARP cleavage [3]: 2.5-10 microgram/ml
- concentrations causing DNA fragmentation [4]: 200-800 microgram/ml
- IC50 by MTT assay [5]: 8.5 microgram/ml
- IC50 (cytotoxicity) [6]: 47 microgram/ml

Compound: O=c1c(O)c(-c2ccc(O)c(O)c2)oc2cc(O)cc(O)c12 [quercetin, 2-(3,4-dihydroxyphenyl)-3,5,7-trihydroxy-4H-chromen-4-one]
- elimination half-life ([7]; after ingestion in foods or supplements): 1 to 2 h
- bioavailability [7]: 0-50%
